Holding throughout (type): cell-based, human
Assay [1] has as its system PC-3 cells. Nature of the assay: Intracellular active oxygen (ROS) production, H2DCFDA, PC-3 cells. The settings on record: DHMBA 1, 10, 100, and 1000 μM, 24 hours. The procedure: The intracellular active oxygen (reactive oxygen species: ROS) was measured using an ROS measurement kit (MAK144-1 Kit, Sigma-Aldrich) using pro-fluorescent substrate H2DCFDA. The PC-3 and DU-145 cells (the cell number of 2.5×10^4/per well, in 0.1 ml of a culture fluid per hole using a 96-hole plate) were cultured in a DMEM culture fluid (containing 10% of FBS, 1% of P/S, and 1% of fungizone) containing the DHMBA (0.1, 1, 10, 100, or 1000 μM) under 5% of CO2, at 37° C., for 24 hours. After the culture, the cells were washed with PBS, 0.1 ml and 25 μM of an H2DCFDA solution was added, and incubation was performed for 45 minutes. Afterwards, the cells were washed with PBS, and as the amount of active oxygen produced in the cells, fluorescence intensity was measured using a fluorescence measurement plate reader at a wavelength Ex/Em=485/535 nm.
The PC-3 and DU-145 cells (2.5×10^4/0.1 ml of a culture fluid per hole using a 96-hole plate) were cultured under 5% of CO2, at 37° C., for 24 hours in a DMEM culture fluid (containing 10% of FBS, 1% of P/S, and 1% of fungizone) containing the DHMBA (0.1, 1, 10, 100, or 1000 μM). […] After the cells were washed with PBS, a fluorescence intensity of the cells was measured using a fluorescence measurement plate reader at a wavelength Ex/Em=485/535 nm. […]

For assay [2], the system named is PC-3 cells. Nature of the assay: Cell invasion, Transwell chambers with Matrigel, PC-3 cells. Particulars: DHMBA 1, 10, or 100 μM, 24 hours. The procedure: (§1) The cell invasion activity of the prostate cancer PC-3 and DU-145 cells was measured using Transwell chambers (the catalogue number CLS3464-48EA of Corning, Life Sciences, USA). A chamber was placed in each well of the 24-hole plate. 50 μl of Matrigel (Corning Life Sciences, Cat. No. 356230, USA) was added to the upper surface of the chambers. After drying the gel, 500 μl of a suspension of the PC-3 or DU-145 cells (the cell number of 2.5×10^4/ml, the DMEM not containing FBS) was added to the upper surface of the gel. This cell suspension contained the DHMBA (0, 1, 10, or 100 μM). After the addition of the cell suspension to the chambers, it was incubated for one hour to cause the cells to adhere. 0.75 ml of the culture fluid not containing the FBS and a culture fluid containing 10% of FBS were added to the lower surface of the chambers. The cells on the plate were cultured under 5% of CO2, 95% of air, at 37° C., for 24 hours. […] After the drying, the number of the stained cells was counted by the microscope (Olympus MTV-3, Olympus Corporation, Tokyo, Japan). […]
(§2) The cell invasion activities of the prostate cancer PC-3 and DU-145 cells were measured using the Transwell chambers. […] After the drying, the number of the stained cells was counted by the microscope (Olympus MTV-3, Olympus Corporation, Tokyo, Japan). […]

The next assay concerns DU-145 cells. Nature of the assay: Cell invasion, Transwell chambers with Matrigel, DU-145 cells. Particulars: DHMBA 1, 10, or 100 μM, 24 hours. The procedure: as §1, §2
In assay [3] the test system is PC-3 cells. Nature of the assay: Colony formation of PC-3 cells. The settings on record: DHMBA 1 or 10 μM, nine days. The procedure: The PC-3 and DU-145 cells (1×10^3/in 2 ml of a culture fluid per hole using a six-hole plate) were cultured in a DMEM culture fluid (containing 10% of FBS, 1% of P/S, and 1% of fungizone) containing the DHMBA (1 and 10 μM) under 5% of CO2, at 37° C., for nine days. After the culture, the culture fluid was removed, the cells were washed twice with PBS, 95% of methanol (0.5 ml) was added, and the cells were fixed for 20 minutes. After the fixation, each well of a culture dish was washed four times with PBS (1 ml), and after that 0.5% of crystal violet (0.5 ml) was added, and the product was left for two hours at room temperature for staining. After the stain solution was washed to be removed, drying was performed, and after that colonies containing 50 or more cells were counted by a microscope (Olympus MTV-3, Olympus Corporation, Tokyo, Japan).
FIG. 1(A) is a drawing in which the PC-3 cells (the cell number of 1×10^3/per well of a six-well plate) were cultured under 5% of CO2, at 37° C., for nine days in a DMEM culture fluid (containing 10% of FBS, 1% of P/S, and 1% of fungizone) containing the DHMBA (1 or 10 μM).
FIG. 1(B) is a diagram of counting the number of colonies.

For `COc1c(O)cc(CO)cc1O` [DHMBA, 3,5-dihydroxy-4-methoxybenzyl alcohol], in the assay on PC-3 cells [1], the “amount of intracellular active oxygen production” value is recorded as “significant inhibition”. Further, the invasion result in the assay with PC-3 cells [2] and in the assay on DU-145 cells was “significantly inhibited” in each case. In the assay with PC-3 cells [3], the colony formation entry is “significantly inhibited”.

The values are drawn from patent US20240350430A1, “GROWTH INHIBITOR OF METASTATIC HUMAN PROSTATE CANCER CELLS” (Watanabe Oyster Laboratory Co., Ltd., priority 2021, published 2024).
